Source: article PMC4994268, “4-aroylpiperidines and 4-(α-hydroxyphenyl)piperidines as selective sigma-1 receptor ligands: synthesis, preliminary pharmacological evaluation and computational studies” (Chemistry Central Journal, 2016)
Structures can show the parent of a compound that is named as a salt.

Tests used:
σ1 receptor [1] = biological target: T1, σ1 receptor (Rattus norvegicus, UniProt Q9R0C9); assay: Sigma receptor binding, σ1 sites, [3H](+)-pentazocine competition in rat liver membrane homogenates; settings: for Ki: HCl salts tested, rat liver membrane homogenates
T1 construct: Rat liver membrane homogenates (~300 μg protein) were diluted with 50 mM Tris–HCl buffer; from tissue; host or cells: rat liver membrane homogenates
T1 sequence (Q9R0C9 whole entry): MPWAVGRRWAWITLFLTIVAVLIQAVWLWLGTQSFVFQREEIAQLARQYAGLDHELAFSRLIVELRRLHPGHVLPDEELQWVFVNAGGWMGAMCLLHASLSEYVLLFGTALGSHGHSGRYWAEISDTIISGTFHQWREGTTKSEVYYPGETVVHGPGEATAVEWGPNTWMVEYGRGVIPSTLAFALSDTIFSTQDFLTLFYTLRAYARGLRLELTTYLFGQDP
Experimental: (§1) These experiments were performed as described by Jinbin et al. with some modification. Different concentrations of test samples were achieved by diluting stock solutions with a solution containing 50 mM Tris–HCl, 150 mM NaCl and 100 mM EDTA at pH 7.4. Rat liver membrane homogenates (~300 μg protein) were diluted with 50 mM Tris–HCl buffer, pH 8.0 and incubated in a total volume of 150 μL with the radioligand at 25 °C in 96 well plates. The incubation time was 60 min for test compounds and 120 min for [^3H] DTG and [^3H] (+)-pentazocine.
(§2) It is worth mentioning that, this was done one at a time. The final concentration of the radioligand in each assay was ~1 nM for [^3H] test compounds and ~5 nM for [^3H]
(§3) The reaction was started by adding 0.2 mL of the membrane preparation to the 50 mM Tris–HCl (pH 8.0) buffer containing ^3H-labeled ligand with a final concentration of 5 nM and cold ligand ranging from 0.01 to 0.1 mM in a final volume of 1.0 mL. Incubations were carried out at […] in the binding study with [^3H] […] DTG. Inhibitor concentrations ranging from 0.1 nM to 10 μM were added to acquire the inhibition curves. After the reaction was completed, the samples were harvested, washed three times, and the bound radioactivity counted and analyzed.

σ1 receptor [2] = assay: as above; settings: ratio of Ki σ2 to Ki σ1
Experimental: as §1, §2, §3

σ2 receptor = biological target: T2, σ2 receptor (Rattus norvegicus, UniProt Q5U3Y7); assay: Sigma receptor binding, σ2 sites, [3H]DTG competition with σ1 sites masked by (+)-pentazocine, rat liver membrane homogenates; settings: HCl salts tested
T2 construct: Rat liver membrane homogenates (~300 μg protein) were diluted with 50 mM Tris–HCl buffer; from tissue; host or cells: rat liver membrane homogenates
T2 sequence (Q5U3Y7 1-176): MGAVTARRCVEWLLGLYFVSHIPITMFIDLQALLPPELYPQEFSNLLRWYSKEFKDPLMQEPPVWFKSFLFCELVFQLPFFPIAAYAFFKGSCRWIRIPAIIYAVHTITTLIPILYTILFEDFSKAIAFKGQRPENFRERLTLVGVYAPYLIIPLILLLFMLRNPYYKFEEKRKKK
Experimental: as §1
It is worth mentioning that, this was done one at a time. The final concentration of the radioligand in each assay was ~1 nM for [^3H] test compounds and ~5 nM for [^3H] […]

σ1 receptor [3] = settings: reference ligands in Table 1; cited from earlier work

Structure (SMILES) | Ki (σ1 receptor [1]) | Selectivity ratio (Ki σ2/σ1) (σ1 receptor [2]) | Ki (σ2 receptor) | increase in σ1 receptor affinity on reduction of the carbonyl compound to the corresponding alcohol (σ1 receptor [1]; alcohol 8 versus ketone 7) | melting point | decrease in σ1 binding affinity on reduction of the carbonyl to the corresponding alcohol (σ1 receptor [1]; alcohol 8 versus ketone 7) | Ki (σ1 receptor [3])
Cc1ccc(CN2CCC(C(=O)c3ccc(F)cc3)CC2)cc1 [Compound 7f, 4-(4-fluorobenzoyl)-1-[(4-methylphenyl)methyl]piperidine] | 11.6 ± 0.26 nM | 13 | 151 ± 7.79 nM |  |  |  | 
OC(c1ccc(F)cc1)C1CCN(Cc2ccc(Cl)cc2)CC1 (stereo not drawn) [Compound 8c, {1-[(4-chlorophenyl)methyl]piperidin-4-yl}(4-fluorophenyl)methanol] | 2.49 ± 0.24 nM | > 343 | > 854 nM | twofold |  |  | 
Cc1ccc(CN2CCC(C(O)c3ccc(F)cc3)CC2)cc1 (stereo not drawn) [Compound 8f, (4-fluorophenyl)({1-[(4-methylphenyl)methyl]piperidin-4-yl})methanol] | 1.45 ± 0.4 nM | > 589 | > 854 nM | 11 fold |  |  | 
O=C(c1ccc(F)cc1)C1CCN(Cc2ccc(Cl)c(Cl)c2)CC1 [Compound 7b, 1-[(3,4-dichlorophenyl)methyl]-4-(4-fluorobenzoyl)piperidine] | > 434 nM |  | > 854 nM |  |  |  | 
Fc1ccc(C(NCc2cccc(Br)c2)C2CCN(Cc3ccc(Br)cc3)CC2)cc1 (stereo not drawn) [Compound 9e, [(3-bromophenyl)methyl]({1-[(4-bromophenyl)methyl]piperidin-4-yl}(4-fluorophenyl)methyl)amine] | 2.95 ± 0.57 nM | > 289 | > 854 nM |  |  |  | 
O=C(c1ccc(F)cc1)C1CCN(Cc2ccc(Br)cc2)CC1 [Compound 7e, 1-[(4-bromophenyl)methyl]-4-(4-fluorobenzoyl)piperidine] | 1.4 ± 0.5 nM | > 610 | > 854 nM |  |  |  | 
Cc1ccc(CN2CCC(C(=O)c3ccc(F)cc3)CC2)cc1 (as salt: HCl) [Compound 7f, 4-(4-fluorobenzoyl)-1-[(4-methylphenyl)methyl]piperidine] |  |  |  |  | 108 to 110 °C |  | 
O=[N+]([O-])c1ccccc1CN1CCC(C(O)c2ccc(F)cc2)CC1 (stereo not drawn) [Compound 8d, (4-fluorophenyl)({1-[(2-nitrophenyl)methyl]piperidin-4-yl})methanol] | 527 ± 69 nM | 2 | > 854 nM |  |  |  | 
O=C(c1ccc(F)cc1)C1CCN(Cc2ccccc2[N+](=O)[O-])CC1 (as salt: HCl) [Compound 7d, 4-(4-fluorobenzoyl)-1-[(2-nitrophenyl)methyl]piperidine] |  |  |  |  | 95 to 97 °C |  | 
O=[N+]([O-])c1ccccc1CN1CCC(C(NCc2cccc(Br)c2)c2ccc(F)cc2)CC1 (stereo not drawn) [Compound 9d, [(3-bromophenyl)methyl][(4-fluorophenyl)({1-[(2-nitrophenyl)methyl]piperidin-4-yl})methyl]amine] | > 434 nM |  | > 854 nM |  |  |  | 
O=C(c1ccc(F)cc1)C1CCN(Cc2ccccc2[N+](=O)[O-])CC1 [Compound 7d, 4-(4-fluorobenzoyl)-1-[(2-nitrophenyl)methyl]piperidine] | > 434 nM |  | > 854 nM |  |  |  | 
OC(c1ccc(F)cc1)C1CCN(Cc2ccc(Cl)c(Cl)c2)CC1 (stereo not drawn) [Compound 8b, {1-[(3,4-dichlorophenyl)methyl]piperidin-4-yl}(4-fluorophenyl)methanol] | > 434 nM |  | > 854 nM |  |  |  | 
OC(c1ccc(F)cc1)C1CCN(Cc2ccc(Br)cc2)CC1 (stereo not drawn) [Compound 8e, {1-[(4-bromophenyl)methyl]piperidin-4-yl}(4-fluorophenyl)methanol] | 5.22 ± 0.3 nM | > 164 | > 854 nM |  |  | fivefold | 
O=C(c1ccc(F)cc1)C1CCN(Cc2ccc(F)cc2)CC1 [Compound 7a, 4-(4-fluorobenzoyl)-1-[(4-fluorophenyl)methyl]piperidine] | 2.96 ± 0.5 nM | 75 | 222 ± 8 nM |  |  |  | 
c1ccc(CN2CCC3(CCc4ccccc4S3)CC2)cc1 [Spipethiane, 1′-Benzyl-3,4-dihydrospiro[2H-1-benzothiopyran-2,4′-piperidine]] |  |  |  |  |  |  | 0.5 nM
OC(c1ccc(F)cc1)C1CCN(Cc2ccc(F)cc2)CC1 (stereo not drawn) [Compound 8a, (4-fluorophenyl)({1-[(4-fluorophenyl)methyl]piperidin-4-yl})methanol] | 1.41 ± 0.22 nM | > 606 | > 854 nM | twofold |  |  | 
O=C(c1ccc(F)cc1)C1CCN(Cc2ccc(Cl)cc2)CC1 [Compound 7c, 1-[(4-chlorophenyl)methyl]-4-(4-fluorobenzoyl)piperidine] | 5.98 ± 0.41 nM | 93 | 554 ± 34.2 nM |  |  |  | 
